These results are taken from US20220332701A1, “HETEROCYCLIC COMPOUNDS AS BCR-ABL INHIBITORS” (ASCENTAGE PHARMA (SUZHOU) CO., LTD., priority 2019, published 2022).

Molecules are shown by their SMILES.

In one assay the target is BaF3(WT) (Homo sapiens, UniProt P00519). Kind of assay: WST (CCK-8) anti-proliferation assay, BaF3 WT cells. The settings on record: read-out: BaF3(WT); anti-proliferative IC50, 72 h treatment, CCK-8, BaF3 WT.
Another assay addresses BaF3(T315I) (Homo sapiens, UniProt P00519, T315I, cells depend on it). Description: WST (CCK-8) anti-proliferation assay, BaF3 T315I cells. The settings on record: read-out: BaF3(T315I); anti-proliferative IC50, 72 h treatment, CCK-8, BaF3 T315I.

Experimental for BaF3(T315I): (§1) The anti-proliferative effect of representative Compounds of the Disclosure was determined by a water-soluble tetrazolium (WST)-based assay using Cell Counting Kit-8 (CCK-8). Cells were seeded in 96-well plates and treated with different concentrations of test articles for 72 h. Each treatment was tested in triplicates. Briefly, a series of 9 concentrations were chosen for each test article and added at 100 μl/well into a 96-well plate. Each concentration was tested in triplicates. 100 μl of diluent was added into 3-6 wells in the same plate for cell control group, and another set of 3-6 wells was used as a blank control.
(§2) In each well, 100 μl of cell suspension (containing optimal cell numbers, which creates approximately 100% confluence of cells in control wells based on by the absorbance (OD) value) was dispensed into the same 96-well plate except for the blank well. The plate was then cultured at 37° C. in an incubator in an atmosphere with 5% CO2 for 72 h. At the end of treatments, 20 μl/well of CCK-8 reagent was directly added to each wells. The plate was then incubated at 37° C. in an incubator in an atmosphere with 5% CO2 for 2-4 hour.
(§3) The cells viability was calculated using the mean OD value of triplicated wells following the equation below: (OD sample−OD blank)/(OD cell control−OD blank)×100 IC50 values were calculated with Graphpad Prism 6.0 software using nonlinear regression (curve fitting) type data analysis.
Experimental for BaF3(WT): as §1, §2, §3

Turning to `CC(=O)N1CC(C)(C)c2c(-c3ccn[nH]3)cc(C(=O)Nc3ccc(OC(F)(F)Cl)cc3)cc21` [III-4, 1-acetyl-N-(4-(chlorodifluoromethoxy)phenyl)-3,3-dimethyl-4-(1H-pyrazol-5-yl)indoline-6-carboxamide], the GI50 at BaF3(WT) is 22 nM; at BaF3(T315I), 176 nM.
For `CC(C)N1C(=O)C(C)(C)c2cc(C(=O)Nc3ccc(OC(F)(F)Cl)cc3)cc(-c3ccn[nH]3)c21` [VIII-3, N-(4-(chlorodifluoromethoxy)phenyl)-1-isopropyl-3,3-dimethyl-2-oxo-7-(1H-pyrazol-5-yl)indoline-5-carboxamide], the GI50 came to 313 nM on BaF3(WT) and 1010 nM on BaF3(T315I).
As to `CN1C(=O)C(C)(C)c2c(-c3ccn[nH]3)cc(C(=O)Nc3ccc(OC(F)(F)Cl)cc3)cc21` [V-2, N-(4-(chlorodifluoromethoxy)phenyl)-1,3,3-trimethyl-2-oxo-4-(1H-pyrazol-5-yl)indoline-6-carboxamide], the GI50 came to 55 nM on BaF3(WT) and 354 nM at BaF3(T315I).
Consider `O=C(Nc1ccc(OC(F)(F)Cl)cc1)c1cc2c(c(-c3ccn[nH]3)c1)C1(CCCC1)C(=O)N2` [V-3, N-(4-(chlorodifluoromethoxy)phenyl)-2′-oxo-4′-(1H-pyrazol-5-yl)spiro[cyclopentane-1,3′-indoline]-6′-carboxamide], for which the GI50 on BaF3(WT) is 22 nM; on BaF3(T315I) it was 136 nM.
Consider `CC(C)N1CCCCc2cc(C(=O)Nc3ccc(OC(F)(F)Cl)cc3)cc(-c3ccn[nH]3)c21` [X-1, N-(4-(chlorodifluoromethoxy)phenyl)-1-isopropyl-9-(1H-pyrazol-5-yl)-2,3,4,5-tetrahydro-1H-benzo[b]azepine-7-carboxamide], for which the results for the GI50 at BaF3(WT) and at BaF3(T315I) were 67 nM and 1290 nM, respectively.
Turning to `CC1(C)c2c(cc(C(=O)Nc3ccc(OC(F)(F)Cl)cc3)cc2-c2ccn[nH]2)C(=O)N1CCO` [IV-5, N-(4-(chlorodifluoromethoxy)phenyl)-2-(2-hydroxyethyl)-1,1-dimethyl-3-oxo-7-(1H-pyrazol-5-yl)isoindoline-5-carboxamide], the GI50 came to 121 nM at BaF3(WT) and 1060 nM on BaF3(T315I).
On to `O=C(Nc1ccc(OC(F)(F)Cl)cc1)c1cc2c(c(-c3ccn[nH]3)c1)N(C1CCCC1)CC2` [VII-2, N-(4-(chlorodifluoromethoxy)phenyl)-1-cyclopentyl-7-(1H-pyrazol-5-yl) indoline-5-carboxamide], for which the GI50 worked out at 29 nM on BaF3(WT) and 272 nM on BaF3(T315I).
In the case of `CC(C)N1c2c(cc(C(=O)Nc3ccc(OC(F)(F)Cl)cc3)cc2-c2cncnc2)CC1C(=O)N1CC(O)C1` (centres unmarked) [VII-14, N-(4-(chlorodifluoromethoxy)phenyl)-2-(3-hydroxyazetidine-1-carbonyl)-1-isopropyl-7-(pyrimidin-5-yl)indoline-5-carboxamide], the GI50 was found to be 56 nM on BaF3(WT) and 660 nM at BaF3(T315I).
Taken in the same sequence, the figures for `CC(C)N1c2c(cc(C(=O)Nc3ccc(OC(F)(F)Cl)cc3)cc2-c2ccn[nH]2)CC1CC(=O)N(C)C` (centres unmarked) [VII-36, N-(4-(chlorodifluoromethoxy)phenyl)-2-(2-(dimethylamino)-2-oxoethyl)-1-isopropyl-7-(1H-pyrazol-5-yl)indoline-5-carboxamide] were 231 nM and 1740 nM.
Consider `O=C(Nc1ccc(OC(F)(F)Cl)cc1)c1cc2c(c(-c3ccn[nH]3)c1)N(C1CC(CO)C1)CC2` (centres unmarked) [VII-12, N-(4-(chlorodifluoromethoxy)phenyl)-1-(3-(hydroxymethyl)cyclobutyl)-7-(1H-pyrazol-3-yl)indoline-5-carboxamide], for which the values for the GI50 at BaF3(WT) and on BaF3(T315I) were 112 nM and 123 nM, respectively.
Consider `CC(C)N1c2c(cc(C(=O)Nc3ccc(OC(F)(F)Cl)cc3)cc2-c2ccn[nH]2)CC1C(=O)NCCN(C)C` (centres unmarked) [VII-32, N5-(4-(chlorodifluoromethoxy)phenyl)-N2-(2-(dimethylamino)ethyl)-1-isopropyl-7-(1H-pyrazol-5-yl)indoline-2,5-dicarboxamide], for which the GI50 on BaF3(WT) came to 308 nM; on BaF3(T315I), 2160 nM.
With `CN1CCN(CCN2C(=O)c3cc(C(=O)Nc4ccc(OC(F)(F)Cl)cc4)cc(-c4ccn[nH]4)c3C2(C)C)CC1` [IV-6, N-(4-(chlorodifluoromethoxy)phenyl)-1,1-dimethyl-2-(2-(4-methylpiperazin-1-yl)ethyl)-3-oxo-7-(1H-pyrazol-5-yl)isoindoline-5-carboxamide], the GI50 was 501 nM on BaF3(WT) and 1570 nM at BaF3(T315I).
Taken in the same sequence, the figures for `CC1CN(C(C)C)c2c(-c3ccn[nH]3)cc(C(=O)Nc3ccc(OC(F)(F)Cl)cc3)cc21` (centres unmarked) [VII-38, N-(4-(chlorodifluoromethoxy)phenyl)-1-isopropyl-3-methyl-7-(1H-pyrazol-5-yl)indoline-5-carboxamide] were 20 nM and 223 nM.
Regarding `CC(C)N1CC(C)(C)Oc2cc(C(=O)Nc3ccc(OC(F)(F)Cl)cc3)cc(-c3ccn[nH]3)c21` [IX-5, N-(4-(chlorodifluoromethoxy)phenyl)-4-isopropyl-2,2-dimethyl-5-(1H-pyrazol-5-yl)-3,4-dihydro-2H-benzo[b][1,4]oxazine-7-carboxamide], the GI50 at BaF3(WT) was 17 nM; on BaF3(T315I), 333 nM.
As for `CN1CCc2cc(C(=O)Nc3ccc(OC(F)(F)Cl)cc3)cc(-c3ccn[nH]3)c21` [VII-7, N-(4-(chlorodifluoromethoxy)phenyl)-1-methyl-7-(1H-pyrazol-5-yl)indoline-5-carboxamide], the figures for the GI50 at BaF3(WT) and on BaF3(T315I) were 113 nM and 144 nM, respectively.
With `O=C(Nc1ccc(OC(F)(F)Cl)cc1)c1cc2c(c(-c3ccn[nH]3)c1)N(C1CCC1)CC2` [VII-8, N-(4-(chlorodifluoromethoxy)phenyl)-1-cyclobutyl-7-(1H-pyrazol-5-yl) indoline-5-carboxamide], the values for the GI50 at BaF3(WT) and on BaF3(T315I) were 23 nM and 468 nM, respectively.
For `CCC1c2cc(C(=O)Nc3ccc(OC(F)(F)Cl)cc3)cc(-c3ccn[nH]3)c2N(C(C)C)C1CO` (centres unmarked) [VII-20, N-(4-(chlorodifluoromethoxy)phenyl)-3-ethyl-2-(hydroxymethyl)-1-isopropyl-7-(1H-pyrazol-5-yl)indoline-5-carboxamide], the GI50 at BaF3(WT) came out at 165 nM; on BaF3(T315I) it was 2180 nM.
With `CN(C)CCN1C(=O)C(C)(C)c2c(-c3ccn[nH]3)cc(C(=O)Nc3ccc(OC(F)(F)Cl)cc3)cc21` [V-7, N-(4-(chlorodifluoromethoxy)phenyl)-1-(2-(dimethylamino)ethyl)-3,3-dimethyl-2-oxo-4-(1H-pyrazol-5-yl)indoline-6-carboxamide], the GI50 was 324 nM at BaF3(WT) and 1540 nM on BaF3(T315I).
With `CC(C)N1CCOc2cc(C(=O)Nc3ccc(OC(F)(F)Cl)cc3)cc(-c3ccn[nH]3)c21` [IX-3, N-(4-(chlorodifluoromethoxy)phenyl)-4-isopropyl-5-(1H-pyrazol-5-yl)-3,4-dihydro-2H-benzo[b][1,4] oxazine-7-carboxamide], the GI50 was determined as 80 nM at BaF3(WT) and 535 nM at BaF3(T315I).
Turning to `CC(C)N1CC(C)(C)c2cc(C(=O)Nc3ccc(OC(F)(F)Cl)cc3)cc(-c3ccn[nH]3)c21` [VII-40, N-(4-(chlorodifluoromethoxy)phenyl)-1-isopropyl-3,3-dimethyl-7-(1H-pyrazol-5-yl)indoline-5-carboxamide], the GI50 was determined as 20 nM on BaF3(WT) and 256 nM on BaF3(T315I).
As to `CC(C)n1ccc2cc(C(=O)Nc3ccc(OC(F)(F)Cl)cc3)cc(-c3ccn[nH]3)c21` [XII-1, N-(4-(chlorodifluoromethoxy)phenyl)-1-isopropyl-7-(1H-pyrazol-5-yl)-1H-indole-5-carboxamide], the GI50 at BaF3(WT) is 115 nM; on BaF3(T315I), 654 nM.
Taken in the same sequence, the figures for `CC(C)n1cc(Cl)c2cc(C(=O)Nc3ccc(OC(F)(F)Cl)cc3)cc(-c3ccn[nH]3)c21` [XII-3, 3-chloro-N-(4-(chlorodifluoromethoxy)phenyl)-1-isopropyl-7-(1H-pyrazol-5-yl)-1H-indole-5-carboxamide] were 505 nM and 3270 nM.
With `COCCN(CCOC)C(=O)C1Cc2cc(C(=O)Nc3ccc(OC(F)(F)Cl)cc3)cc(-c3ccn[nH]3)c2N1C(C)C` (centres unmarked) [VII-30, N^5-(4-(chlorodifluoromethoxy)phenyl)-1-isopropyl-N2,N2-bis(2-methoxyethyl)-7-(1H-pyrazol-5-yl)indoline-2,5-dicarboxamide], the GI50 came to 16 nM at BaF3(WT) and 94 nM on BaF3(T315I).
With `CC1CN(C)c2c(-c3ccn[nH]3)cc(C(=O)Nc3ccc(OC(F)(F)Cl)cc3)cc21` (centres unmarked) [VII-39, N-(4-(chlorodifluoromethoxy)phenyl)-1,3-dimethyl-7-(1H-pyrazol-5-yl)indoline-5-carboxamide], the GI50 was 62 nM at BaF3(WT) and 1050 nM at BaF3(T315I).
Take `CC(C)N1CCc2cc(C(=O)Nc3ccc(OC(F)(F)Cl)cc3)cc(-c3cncnc3)c21` [VII-4, N-(4-(chlorodifluoromethoxy)phenyl)-1-isopropyl-7-(pyrimidin-5-yl)indoline-5-carboxamide]: the GI50 was 42 nM on BaF3(WT) and 136 nM on BaF3(T315I).
As to `CC1(C)CN(S(C)(=O)=O)c2cc(C(=O)Nc3ccc(OC(F)(F)Cl)cc3)cc(-c3ccn[nH]3)c21` [III-5, N-(4-(chlorodifluoromethoxy)phenyl)-3,3-dimethyl-1-(methylsulfonyl)-4-(1H-pyrazol-5-yl)indoline-6-carboxamide], the values for the GI50 on BaF3(WT) and at BaF3(T315I) were 61 nM and 418 nM, respectively.
As for `CN1C(=O)c2cc(C(=O)Nc3ccc(OC(F)(F)Cl)cc3)cc(-c3cccnc3)c2C1(C)C` [IV-9, N-(4-(chlorodifluoromethoxy)phenyl)-1,1,2-trimethyl-3-oxo-7-(pyridin-3-yl)isoindoline-5-carboxamide], the GI50 at BaF3(WT) was found to be 77 nM; at BaF3(T315I), 107 nM.
The like results for `CC(C)N1c2c(cc(C(=O)Nc3ccc(OC(F)(F)Cl)cc3)cc2-c2ccn[nH]2)CC1C(=O)N1CCN(C)CC1` (centres unmarked) [VII-33, N-(4-(chlorodifluoromethoxy)phenyl)-1-isopropyl-2-(4-methylpiperazine-1-carbonyl)-7-(1H-pyrazol-5-yl)indoline-5-carboxamide] were, in that order, 49 nM and 163 nM.
